Data taken from patent US8741359B2, “Method for testing a substance which is potentially active in the field of lipolysis and its mainly cosmetic use” (BASF Beauty Care Solutions France S.A.S., priority 2001, dated 2014).

Columns and labels:
lipoprotein lipase [1] = molecular target: T1, lipoprotein lipase (Bos taurus, UniProt P11151); assay: Inhibition of lipoprotein lipase, acellular in vitro model, NEFA determination with NEFA-C kit (colorimetry 550 nm); format: biochemical, bovine; conditions: for Inhibition (%) Pure product diluted to a 1/100th / Inhibition (%) Pure product diluted to a 1/10,000th / Inhibition (%) Pure product: reference inhibitors; for Inhibition (%) Pure product: pure product at initial concentration (protamine sulphate 0.4%, protamine 2.4%, sodium pyrophosphate 6%)
T1 construct: The LPL used in the study model retained does in fact originate from bovine milk; from tissue; host or cells: bovine milk
T1 sequence (P11151 29-478): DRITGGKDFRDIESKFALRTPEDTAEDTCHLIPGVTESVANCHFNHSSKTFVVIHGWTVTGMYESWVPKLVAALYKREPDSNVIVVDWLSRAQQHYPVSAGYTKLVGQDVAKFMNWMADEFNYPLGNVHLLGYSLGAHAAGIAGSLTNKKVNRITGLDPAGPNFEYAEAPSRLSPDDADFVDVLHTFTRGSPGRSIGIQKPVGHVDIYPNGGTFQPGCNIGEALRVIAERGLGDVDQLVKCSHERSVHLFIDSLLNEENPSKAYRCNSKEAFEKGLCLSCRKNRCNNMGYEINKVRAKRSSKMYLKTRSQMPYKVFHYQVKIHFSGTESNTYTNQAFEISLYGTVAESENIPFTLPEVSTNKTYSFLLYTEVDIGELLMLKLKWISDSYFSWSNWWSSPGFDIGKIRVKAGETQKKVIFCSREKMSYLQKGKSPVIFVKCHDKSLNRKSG

lipoprotein lipase [2] = molecular target: T1, lipoprotein lipase; assay: Inhibition of lipoprotein lipase, released oleic acid determined by gas phase chromatography (GPC); format: biochemical, bovine; conditions: for Inhibition Pure product diluted to a 1/100th: diluted 1/100th; for Inhibition Pure product diluted to a 1/10,000th: diluted 1/10,000th; for Inhibition Pure product: pure product at initial concentration (sodium pyrophosphate 6%, protamine sulphate 0.4%)
Procedure: LPL is an enzyme which has a significant affinity for its reaction product. The fatty acids released will in fact aggregate around the enzyme which will as it were be sequestered by the fatty acids and will therefore be no longer accessible to the substrate. […] II—Inhibition of the Lipoprotein Lipase:
The enzyme is incubated for a determined period of time in the presence of its inhibitor while the triolein is incubated in the presence of apoCII so as to mimic the situation encountered in vivo.
The triolein/ApoCII mixture is then incubated in the presence of the medium constituted by the enzyme±inhibitor.
For this, an oleic acid determination technique which enables the oleic acid at the end of the enzymatic reaction to be quantified, was developed.
The oleic acid is extracted from the reaction medium of the enzymatic determination with ethanol, and then injected onto a commercial column from DBJW scientific: reference DB FFAP, 15 m in length, 0.32 mm internal diameter, 0.25 μm thickness in splitless mode. The temperatures of the injector and of the detector are 280° C. The programming in temperature starts at 50° C. for 1 minute and then rises by 40° C./minute up to 200° C. and then by 15° C. par minute up to 250° C. for 3 minutes.

Inhibition (%) Pure product diluted to a 1/100th (lipoprotein lipase [1]; diluted 1/100th)	Inhibition (%) Pure product diluted to a 1/10,000th (lipoprotein lipase [1]; diluted 1/10,000th)	Inhibition (%) Pure product (lipoprotein lipase [1])	Inhibition Pure product diluted to a 1/100th (lipoprotein lipase [2])	Inhibition Pure product diluted to a 1/10,000th (lipoprotein lipase [2])	Inhibition Pure product (lipoprotein lipase [2])	Inhibition Pure product diluted to a 1/100th (lipoprotein lipase [1]; denaturing products, diluted 1/100th)	Inhibition Pure product diluted to a 1/10,000th (lipoprotein lipase [1]; denaturing products, diluted 1/10,000th)	Inhibition Pure product (lipoprotein lipase [1]; denaturing products, pure product)	Molecule
–	–	–	44.8% ± 10.6	0% ± 3.8	100% ± 1.8	11.4% ± 10.39	0% ± 9.8	98.3% ± 12.4	O=C(OC[C@H]1O[C@@H](OC(=O)c2cc(O)c(O)c(OC(=O)c3cc(O)c(O)c(O)c3)c2)[C@H](OC(=O)c2cc(O)c(O)c(OC(=O)c3cc(O)c(O)c(O)c3)c2)[C@@H](OC(=O)c2cc(O)c(O)c(OC(=O)c3cc(O)c(O)c(O)c3)c2)[C@@H]1OC(=O)c1cc(O)c(O)c(OC(=O)c2cc(O)c(O)c(O)c2)c1)c1cc(O)c(O)c(OC(=O)c2cc(O)c(O)c(O)c2)c1 [Tannic acid]
9.6% ± 5	8.5% ± 8.7	11.2% ± 6.6	–	–	–	–	–	–	Protamine
2.6% ± 14.4	11.8% ± 14.7	10.1% ± 7.9	5.0% ± 9.6	27.7% ± 2.9	17.9% ± 17.5	–	–	–	Protamine sulphate

Molecule	Inhibition (%) Pure product diluted to a 1/100th (lipoprotein lipase [1]; diluted 1/100th)	Inhibition (%) Pure product diluted to a 1/10,000th (lipoprotein lipase [1]; diluted 1/10,000th)	Inhibition (%) Pure product (lipoprotein lipase [1])	Inhibition Pure product diluted to a 1/100th (lipoprotein lipase [2])	Inhibition Pure product diluted to a 1/10,000th (lipoprotein lipase [2])	Inhibition Pure product (lipoprotein lipase [2])	Inhibition Pure product diluted to a 1/100th (lipoprotein lipase [1]; denaturing products, diluted 1/100th)	Inhibition Pure product diluted to a 1/10,000th (lipoprotein lipase [1]; denaturing products, diluted 1/10,000th)	Inhibition Pure product (lipoprotein lipase [1]; denaturing products, pure product)
O=P([O-])([O-])OP(=O)([O-])[O-].[Na+].[Na+].[Na+].[Na+] [Sodium pyrophosphate]	13% ± 12.5	0.4% ± 8.3	15% ± 12.6	30.4% ± 4.0	47.4% ± 10.4	35.1% ± 11.1	–	–	–
